“And” between values parts separate entries of the source, which are not always exact repeats. Identical values can stand only once.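 Test compounds were applied to cells in 96-well plates for 48 hours at 5 doses. GI50 is the concentration that inhibits growth by half. At the TGI there is no net growth.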
Tests used:
Test in all cases: NCI tumour cell line growth inhibition, 48 h
[1] = system: SK-OV-3 ovarian
[2] = system: U251 CNS
[3] = system: RXF 393 renal
[4] = system: SR leukemia
[5] = system: MDA-MB-231 breast
[6] = system: SF-268 CNS
[7] = system: SK-MEL-5 melanoma
[8] = system: KM12 colon
[9] = system: HOP-92 NSCLC
[10] = system: NCI/ADR-RES ovarian

Row | SMILES | GI50 [1] | TGI [1] | GI50 [2] | TGI [2] | GI50 [3] | TGI [3] | GI50 [4] [µM] | TGI [4] [µM] | GI50 [5] | TGI [5] | GI50 [6] | TGI [6] | GI50 [7] | TGI [7] | GI50 [8] | TGI [8] | GI50 [9] | TGI [9] | GI50 [10] | TGI [10]
1 | COC(=O)/C=C1\SC(=Nc2ccc(C(F)(F)F)cc2)N(CCc2c[nH]c3ccccc23)C1=O | 2.05 µM | 4.06 µM | 1.63 µM | 2.99 µM | 1.43 µM | 2.98 µM | 0.613 | 9.31 | 1.5 µM | 2.87 µM | 1.78 µM | 3.67 µM | 1.69 µM | 3.06 µM | 1.74 µM | 3.62 µM | 1.58 µM | 3.24 µM | 1.89 µM | 4.31 µM
2 | COc1c(O)cc2oc3cc(O)c(CC=C(C)C)c(O)c3c(=O)c2c1C/C=C(\C)CCC=C(C)C | 5.86 µM | 10.4 µM | 5.89 µM | 10.6 µM | 5.53 µM | 10.2 µM | 5.45 | 13.2 | 5.61 µM | 11.2 µM | 5.56 µM | 10 µM | 5.62 µM | 10.2 µM | 5.47 µM | 9.91 µM | 6.52 µM | 11.5 µM | 5.99 µM | 11.4 µM
3 | O=C(CSc1nc2ccc([N+](=O)[O-])cc2[nH]1)Nc1cccc(C(F)(F)F)c1 | 1.66 µM | 5.86 µM | 2.28 µM | 12.2 µM | 2 µM | 8.02 µM | 3.02 | > 43.7 | 2.13 µM | 6.65 µM | 2.73 µM | 13.9 µM | 1.03 µM | 2.57 µM | 2.2 µM | 8.08 µM | 0.3 µM | 2.82 µM | 2.29 µM | 8.75 µM
4 | O=C1C(Cl)=C(Oc2ccccc2)C(=O)c2ccccc21 | 6.51 µM | 23.6 µM | 3.57 µM | 13.4 µM | 2.75 µM | 6.84 µM | 4.49 | 39.1 | 6.51 µM | 21.1 µM | 5.37 µM | 18.7 µM | 6.26 µM | 17.1 µM | 2.84 µM | 8.84 µM | 1.8 µM | 4.56 µM | 7.75 µM | 37.9 µM
5 | COc1ccc(/C=C\c2cc(OC)c(OC)c(OC)c2)cc1NC(=O)[C@@H](N)CO | < 0.0124 µM | > 100 µM | 0.0165 µM | > 100 µM | < 0.01 µM | 26.7 µM | < 0.015 | > 100 | 0.0215 µM | > 100 µM | 0.0462 µM | > 100 µM | < 0.0112 µM | 0.0364 µM | < 0.0129 µM | > 100 µM | 0.0103 µM | 64.5 µM | 0.0205 µM | 0.245 µM
6 | O=C1c2cccnc2-c2nc(-c3ccccn3)cc3c2c1nc1ccccc13 | 0.192 µM | 0.581 µM | 0.149 µM | 0.306 µM | 0.285 µM | 5.84 µM |  | 25.3 | 0.185 µM | 0.5 µM | 0.449 µM | 2.5 µM | 0.265 µM | 1.65 µM | 0.426 µM | 3.17 µM | 0.241 µM | 0.729 µM | 0.208 µM | 0.658 µM
7 | Cn1cc(-c2nc(-c3c[nH]c4ncccc34)cs2)c2cc(Cl)ccc21 | 16.1 µM | > 100 µM | 3.85 µM | 30.8 µM | 4.63 µM | > 100 µM | 6.92 | > 100 | 2.65 µM | 54.1 µM | 5.28 µM | > 100 µM | 7.48 µM | > 100 µM | 2.26 µM | 7.47 µM | 2.93 µM | 18.4 µM | 3.94 µM | > 100 µM
8 | O=C(Nc1ncc([N+](=O)[O-])s1)c1cccc([N+](=O)[O-])c1 | 3.72 µM | 35.7 µM | 3.54 µM | > 100 µM | 2.44 µM | 6.91 µM | 2.36 | 9.01 | 5.12 µM | 54.5 µM | 8.25 µM | > 100 µM | 2.75 µM | 11.5 µM | 4.61 µM | 65.6 µM | 1.99 µM | 6.86 µM | 3.32 µM | > 100 µM
9 | COc1ccc(/C=C/C(=O)/C=C(/C=C/c2ccc(OC)c(OC)c2)OB(F)F)cc1OC | 2.98 µM | 12.1 µM | 0.807 µM | 2.31 µM | 0.34 µM | 1.31 µM | 0.287 | 1.69 | 0.621 µM | 4.08 µM | 2.42 µM | > 100 µM | 1.49 µM | 3.23 µM | 1.78 µM | 3.95 µM | 1.71 µM | 4.89 µM | 0.529 µM | > 100 µM
10 | COC(=O)c1ccc(-c2nc3cc(F)c(F)cc3nc2C#N)cc1 | 9.77 µM | 17.2 µM | 10.1 µM | 21.4 µM | 8.53 µM | 17.6 µM | 1.25 | 2.77 | 1.57 µM | 6.87 µM | 1.5 µM | 4.64 µM | 6.87 µM | 13.7 µM | 31.4 µM | 50 µM | 9.8 µM | 21.1 µM | 4.21 µM | 10.4 µM
11 | Clc1ccc(N2COOC3(OOC2)C2CC4CC(C2)CC3C4)cc1 | > 100 µM | > 100 µM | 11.9 µM | 32.9 µM | 6.96 µM | > 59.3 µM | 2.19 | 11.4 | 6.69 µM | > 57.9 µM | 5.88 µM | > 67.4 µM | 1.25 µM | > 24.2 µM | 2.02 µM | > 100 µM | 14.9 µM | 43.5 µM | 5.34 µM | 74.9 µM
12 | CCNCCNc1cc(-c2ccc(Cl)cc2)c(C#N)c2nc3ccccc3n12 | 1.85 µM | 3.47 µM | 1.7 µM | 3.27 µM | 1.44 µM | 2.78 µM | 0.282 | 0.69 | 1.92 µM | 3.58 µM | 1.54 µM | 3 µM | 1.7 µM | 3.11 µM | 1.73 µM | 3.24 µM | 1.7 µM | 3.2 µM | 1.85 µM | 3.91 µM
13 | Cc1c(C(=O)CCl)c(=O)n(-c2ccccc2)n1C | 16.4 µM | 74.5 µM | 11.4 µM | 26.2 µM | 1.76 µM | 6.11 µM | 2.28 | 13.5 | 11.2 µM | 27.9 µM | 5.47 µM | 19.7 µM | 3.66 µM | 14.5 µM | 10.4 µM | 22.6 µM | 1.56 µM | 13.2 µM | 5.53 µM | 27.3 µM
14 | COc1ccc(/C=C(\C#N)n2nnc3cc(Cl)ccc32)cc1 | 7.09 µM | > 82.3 µM | 0.63 µM | 9.53 µM | 0.787 µM | 2.62 µM | 0.336 | > 100 | 1.09 µM | 10.2 µM | 2 µM | > 100 µM | 2.36 µM | 10.6 µM | 1.33 µM | 37.1 µM | 0.552 µM | 4.27 µM | 0.299 µM | 4.58 µM
15 | c1ccc(Oc2c3ccccc3nc3ccccc23)cc1 | 4.34 µM | 21 µM | 3.26 µM | 11 µM | 3.6 µM | 15.1 µM | 2.97 | 54.3 | 3.08 µM | 9.82 µM | 5.28 µM | 17.3 µM | 3.5 µM | 11.7 µM | 3.64 µM | 11 µM | 2.24 µM | 8.63 µM | 7.32 µM | 27 µM
16 | CC1/C=C/C=C/CC/C=C/C=C/C=C/C=C/C(OC2OC(C)C(O)C(N)C2O)CC2OC(CC(O)C(O)CCC(O)CC(O)CC(O)CC(=O)OC(C)C(C)C1O)CC(O)C2C(=O)O (stereo not drawn) | 47.1 µg/mL | 44.4 µM and 136 µg/mL | 69.1 µg/mL | 32.4 µM and 150 µg/mL | 19.5 µg/mL | 27.3 µM and 40.5 µg/mL |  | 35.5 | 29.4 µg/mL | 39.4 µM and 69.2 µg/mL | 33.9 µg/mL | 56.9 µM and 70.7 µg/mL | 47.3 µg/mL | 58.9 µM and 150 µg/mL | 53 µg/mL | 61.5 µM and 150 µg/mL | 42.5 µg/mL | > 100 µM and 150 µg/mL | 41 µg/mL | 45.2 µM and 93.8 µg/mL
17 | C[C@@H](Oc1cc(-c2cnn(C3CCNCC3)c2)cnc1N)c1c(Cl)ccc(F)c1Cl | 5.85 µM | > 10 µM | 1.98 µM | 8.74 µM | 1.36 µM | 3.11 µM | 0.0453 | 1.09 | 1.17 µM | 6.5 µM | 3.48 µM | > 10 µM | 1.47 µM | 2.84 µM | 0.053 µM | > 10 µM | 0.236 µM | 2.62 µM | 7.38 µM | > 10 µM
18 | CC1=C(C(=O)Nc2ccc(F)c(Cl)c2)C(c2cccc(O)c2)NC(=S)N1 (stereo not drawn) | 16.8 µM | > 50 µM | 16.6 µM | > 50 µM | 14 µM | 30.5 µM | 16.4 | > 50 | 10.9 µM | 30.2 µM | 17.8 µM | > 50 µM | 11.2 µM | 40.3 µM | 10.8 µM | 35.8 µM | > 50 µM | > 50 µM | > 50 µM | > 50 µM
